US20260224537A1, “METHODS AND COMPOSITIONS FOR TREATING GLUCOCORTICOID-MEDIATED DISEASES” (SPARROW PHARMACEUTICALS, INC., priority 2023, published 2026)
“Also recorded” adds a separate entry of the source. Each block holds one compound with its values, some of them ahead of it.

Key:
[1] = prior trials, participants did not receive GCs; cited from earlier work
[2] = system: patients with polymyalgia rheumatica (PMR); experiment: Clinical trial in PMR: assessment of prednisolone toxicity (bone turnover, lipids, glycemic control, coagulation, ECG heart rate, HPA axis); format: in vivo, human
Description: (§1) In an ongoing clinical trial, patients with polymyalgia rheumatica (PMR), who receive prednisolone 10 mg daily for at least 7 days prior to Day 1, are in remission or have low disease activity, and who meet the inclusion and exclusion criteria (Table 1), enter a 4-week treatment period.
(§2) From Day 1 to Week 2, participants continue to receive prednisolone 10 mg and placebo for SPI-62, each daily. From Week 2 to Week 4, participants receive prednisolone, at a dose or randomized doses assigned per cohort, and SPI-62 6 mg, each daily. The order of treatments are not randomized due to the long pharmacological half-life of SPI-62, which is understood to be approximately 4-6 weeks based on data collected up to 2-2.5 weeks after cessation of SPI-62 administration in prior clinical trials. Participants are blinded to the order of treatments. Participants are enrolled in cohorts of approximately 12. • During Cohort 1, 12 participants received prednisolone 10 mg with SPI-62 6 mg. Two participants were erroneously dosed with SPI-62 on Day 1. […] Two participants' prednisolone dose was increased to 15 mg prior to Week 4 following adverse events of PMVR aggravated. Those two participants' data are represented in the Figures in the PRL15 CLO6 regimen. […] Those two participants' data are represented in the Figures only in the PRL10 regimen. • During Cohort 2, 12 participants received prednisolone 15 mg (50% dose adjustment) with SPI-62 6 mg. All also received prednisolone 10 mg with placebo for SPI-62. • During Cohort 3, 11 participants received prednisolone 20 mg (100% dose adjustment from Cohort 1) with clofutriben (i.e., SPI-62) 6 mg. All also received prednisolone 10 mg with placebo for SPI-62. […] That participant's data are represented in the Figures in the PRL10 and PRL10 CLO6 regimens. • During Cohort 4, 11 participants received prednisolone 30 mg (100% dose adjustment from Cohort 2) with clofutriben (i.e., SPI-62) 6 mg. • Two additional participants dropped out of the trial before they received clofutriben. Those participants' data are represented in the Figures in the PRL10 regimen.
FIGS. 1-26 compare the change from baseline during two weeks of treatment with 10 mg prednisolone and placebo (PRL 10), 10 mg prednisolone and 6 mg clofutriben (PRL10 CLO6), 15 mg prednisolone and 6 mg clofutriben (PRL15 CLO6), 20 mg prednisolone and 6 mg clofutriben (PRL20 CLO6), and 30 mg prednisolone and 6 mg clofutriben (PRL30 CLO6). The central horizontal line of each diamond represents the mean of the observed data. The top and bottom vertices represent the 95% confidence interval of the mean. The top and bottom ‘overlap lines’ would indicate statistically significant difference between groups under assumptions of normal data distribution, equal variances, and lack of covariance with baseline value. As one or more of those assumptions is violated for many of the datasets, statistical significance should not be inferred based on the overlap lines in FIGS. 1-26.
Assessment of prednisolone toxicity focused first on bone turnover biomarkers, which were expected to be the most sensitive based on published evidence of substantial changes within a few days of glucocorticoid administration that correlated with hepatic HSD-1 activity. SPI-62 was associated with changes consistent with an anti-GIOP phenotype, i.e., increases of the bone formation biomarkers OC and P1NP (FIG. 12), and decreases of the bone resorption biomarker CTX (FIG. 13).
Whether GC-associated HDL increase should be considered GC toxicity is not clear. […] About half of the participants (represented by colored circles) were on cholesterol-lowering agents, while no participants received any additional triglyceride lowering agents. The improvements in cholesterol were attributed mainly to a decrease in HDL, representing a reversal of the HDL-increasing effect of GC by clofutriben. […]

[3] = system: patients with polymyalgia rheumatica (PMR); experiment: Clinical trial in PMR: circulating cell counts (lymphoid lineages by quantitative PCR; monocytes, neutrophils, platelets); format: in vivo, human
Description: as §1, §2
FIGS. 1-26 compare the change from baseline during two weeks of treatment with 10 mg prednisolone and placebo (PRL 10), 10 mg prednisolone and 6 mg clofutriben (PRL10 CLO6), 15 mg prednisolone and 6 mg clofutriben (PRL15 CLO6), 20 mg prednisolone and 6 mg clofutriben (PRL20 CLO6), and 30 mg prednisolone and 6 mg clofutriben (PRL30 CLO6). The central horizontal line of each diamond represents the mean of the observed data. The top and bottom vertices represent the 95% confidence interval of the mean. […]
Counts of several circulating lymphoid cell types were determined by quantitative PCR for lineage-specific DNA methylation patterns. […]

hepatic HSD-1 = target: T1, hepatic HSD-1 (Homo sapiens, UniProt P28845); experiment: Urinary ratio (tetrahydrocortisol+allotetrahydrocortisol)/tetrahydrocortisone, biomarker of hepatic HSD-1 activity; format: in vivo
T1 construct: confirm the pharmacological effect of SPI-62 on hepatic HSD-1 activity; from tissue; host or cells: liver (hepatocytes) of trial subjects, in vivo; read out through urinary steroid metabolites
T1 sequence (P28845 whole entry): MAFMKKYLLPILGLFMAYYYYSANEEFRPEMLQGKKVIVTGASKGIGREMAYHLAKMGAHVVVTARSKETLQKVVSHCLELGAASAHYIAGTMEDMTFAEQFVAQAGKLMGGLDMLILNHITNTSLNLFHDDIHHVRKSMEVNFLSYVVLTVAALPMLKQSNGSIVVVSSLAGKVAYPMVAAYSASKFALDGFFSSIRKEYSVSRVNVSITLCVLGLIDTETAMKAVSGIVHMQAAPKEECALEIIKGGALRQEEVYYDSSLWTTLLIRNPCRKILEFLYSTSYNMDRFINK
Description: Data from all cohorts were analyzed together to confirm the pharmacological effect of SPI-62 on hepatic HSD-1 activity. In hepatocytes, 5- and 3-steroid reductases, the latter a liver-specific enzyme, convert cortisol and cortisone to tetrahydro metabolites which are excreted in urine. The urinary ratio (tetrahydrocortisol+allotetrahydrocortisol)/tetrahydrocortisone is an accepted biomarker of hepatic HSD-1 activity. Morning spot urine samples were collected at Baseline (BL), after 2 weeks of prednisolone 10 mg treatment (PRL), after 2 weeks of prednisolone 10-30 mg+clofutriben 6 mg treatment (PRL CLO6), and after 4 weeks washout following the last clofutriben dose (WO). […] The similarity between BL and PBO is an example of the repeatability of the HSD-1 ratio in spot urine samples.

[4] = system: patients with polymyalgia rheumatica (PMR); experiment: Clinical trial in PMR: 13-plex cytokine panel; format: in vivo, human; details: SPI-62 6 mg co-administered with prednisolone; 2 weeks
Description: as §1
From Day 1 to Week 2, participants continue to receive prednisolone 10 mg and placebo for SPI-62, each daily. From Week 2 to Week 4, participants receive prednisolone, at a dose or randomized doses assigned per cohort, and SPI-62 6 mg, each daily. The order of treatments are not randomized due to the long pharmacological half-life of SPI-62, which is understood to be approximately 4-6 weeks based on data collected up to 2-2.5 weeks after cessation of SPI-62 administration in prior clinical trials. Participants are blinded to the order of treatments. Participants are enrolled in cohorts of approximately 12. • During Cohort 1, 12 participants received prednisolone 10 mg with SPI-62 6 mg. Two participants were erroneously dosed with SPI-62 on Day 1. […] Two participants' prednisolone dose was increased to 15 mg prior to Week 4 following adverse events of PMVR aggravated. Those two participants' data are represented in the Figures in the PRL15 CLO6 regimen. […] Those two participants' data are represented in the Figures only in the PRL10 regimen. • During Cohort 2, 12 participants received prednisolone 15 mg (50% dose adjustment) with SPI-62 6 mg. All also received prednisolone 10 mg with placebo for SPI-62. • During Cohort 3, 11 participants received prednisolone 20 mg (100% dose adjustment from Cohort 1) with clofutriben (i.e., SPI-62) 6 mg. All also received prednisolone 10 mg with placebo for SPI-62. […] That participant's data are represented in the Figures in the PRL10 and PRL10 CLO6 regimens. • During Cohort 4, 11 participants received prednisolone 30 mg (100% dose adjustment from Cohort 2) with clofutriben (i.e., SPI-62) 6 mg. • Two additional participants dropped out of the trial before they received clofutriben. Those participants' data are represented in the Figures in the PRL10 regimen. […]

[5] = system: patients with diabetic peripheral neuropathy; details: SPI-62 without prednisolone, at 6 weeks, prior trials; cited from earlier work
[6] = system: patients with polymyalgia rheumatica (PMR); experiment: Clinical trial in PMR: acute phase markers CRP, ESR, fibrinogen; format: in vivo, human; details: change from baseline after 2 weeks daily treatment
Description: as §1
(§3) From Day 1 to Week 2, participants continue to receive prednisolone 10 mg and placebo for SPI-62, each daily. From Week 2 to Week 4, participants receive prednisolone, at a dose or randomized doses assigned per cohort, and SPI-62 6 mg, each daily. The order of treatments are not randomized due to the long pharmacological half-life of SPI-62, which is understood to be approximately 4-6 weeks based on data collected up to 2-2.5 weeks after cessation of SPI-62 administration in prior clinical trials. Participants are blinded to the order of treatments. Participants are enrolled in cohorts of approximately 12. • During Cohort 1, 12 participants received prednisolone 10 mg with SPI-62 6 mg. Two participants were erroneously dosed with SPI-62 on Day 1. […] Two participants' prednisolone dose was increased to 15 mg prior to Week 4 following adverse events of PMVR aggravated. […]
Criterion 2—Acute phase markers C-reactive protein (CRP) and erythrocyte sedimentation rate (ESR), which are standard parameters clinicians use to quantitate systemic inflammation in PMR. […]

[7] = Prior clinical trials of SPI-62 (without glucocorticoids); details: human, in vivo; based on data collected up to 2-2.5 weeks after cessation of SPI-62 administration in prior clinical trials; read-out: pharmacological half-life
Description: From Day 1 to Week 2, participants continue to receive prednisolone 10 mg and placebo for SPI-62, each daily. From Week 2 to Week 4, participants receive prednisolone, at a dose or randomized doses assigned per cohort, and SPI-62 6 mg, each daily. The order of treatments are not randomized due to the long pharmacological half-life of SPI-62, which is understood to be approximately 4-6 weeks based on data collected up to 2-2.5 weeks after cessation of SPI-62 administration in prior clinical trials. Participants are blinded to the order of treatments. Participants are enrolled in cohorts of approximately 12. • During Cohort 1, 12 participants received prednisolone 10 mg with SPI-62 6 mg. Two participants were erroneously dosed with SPI-62 on Day 1. […] Two participants' prednisolone dose was increased to 15 mg prior to Week 4 following adverse events of PMVR aggravated. Those two participants' data are represented in the Figures in the PRL15 CLO6 regimen. […] Those two participants' data are represented in the Figures only in the PRL10 regimen. • During Cohort 2, 12 participants received prednisolone 15 mg (50% dose adjustment) with SPI-62 6 mg. All also received prednisolone 10 mg with placebo for SPI-62. • During Cohort 3, 11 participants received prednisolone 20 mg (100% dose adjustment from Cohort 1) with clofutriben (i.e., SPI-62) 6 mg. […]

healthy adults = details: dexamethasone 3 mg, 5 days; cited from earlier work
[8] = system: patients with polymyalgia rheumatica (PMR); experiment: Clinical trial in polymyalgia rheumatica: PMR disease control, adverse events of PMR aggravated and relapse (Criterion 1); format: in vivo, human; details: 2 weeks daily treatment
Description: as §1
as §3, with “aggravated. Those two participants' data are represented in the Figures in the PRL15 CLO6 regimen.” for “aggravated.”

[9] = PMR patients, change from baseline after 2 weeks daily treatment
[10] = co-administration with prednisolone at any prednisolone dose, 2 weeks
[11] = patients receiving prednisolone, relative to placebo

hepatic HSD-1 inhibition after washout (hepatic HSD-1; 4 weeks after the last dose of SPI-62): Substantial hepatic HSD-1 inhibition | hepatic HSD-1 inhibition (hepatic HSD-1; after 2 weeks of prednisolone 10-30 mg + clofutriben 6 mg): full hepatic HSD-1 inhibition | urinary ratio (tetrahydrocortisol+allotetrahydrocortisol)/tetrahydrocortisone, mean value (hepatic HSD-1; morning spot urine after 2 weeks of prednisolone 10-30 mg + clofutriben 6 mg): ≤ 0.2 | IL-1 receptor antagonist (IL-1RA) level [4]: did not show sensitivity to SPI-62 | half-life [7]: 28 to 42 days
SMILES: Cn1c(-c2ccc(C(N)=O)cc2F)nnc1C(C)(C)Oc1c(F)cc(Cl)cc1F [SPI-62, 4-(5-(2-(4-chloro-2,6-difluorophenoxy)propan-2-yl)-4-methyl-4H-1,2,4-triazol-3-yl)-3-fluorobenzamide]
effect on ECG heart rate [1]: No effect | HOMA-IR [2, 9]: not sensitive | HbA1c [2, 9]: not sensitive; also recorded: close to zero | activated partial thromboplastin time (APTT) [2, 9]: improve | bone formation biomarker BSAP [2, 9]: low sensitivity | bone formation biomarker P1NP [2, 9]: increases | bone formation biomarker osteocalcin (OC) [2, 9]: increases | bone resorption biomarker CTX [2, 9]: decreases | morning serum cortisol ([2]; PMR patients, change from baseline after 2 weeks daily treatment, compared to placebo): increase | Prothrombin International Normalized Ratio (INR) [2, 10]: not observed to be sensitive | Prothrombin Time (PT) [2, 10]: not observed to be sensitive | plasma ACTH ([2]; patients receiving prednisolone, clofutriben compared to placebo): increase | DHEA-S [2, 11]: increase, within or close to the reference range | testosterone [2, 11]: increase, within or close to the reference range | hypothalamic-pituitary-adrenal (HPA) axis ([2]; patients that received prednisolone): de-repression | monocyte count [3, 9]: anticipated increases | neutrophil count [3, 9]: anticipated increases | platelet count [3, 9]: anticipated increases | counts of circulating lymphoid cell types (B, IL-6R+, memory B, CD3+T, Th17, Treg) ([3]; SPI-62 6 mg co-administered with prednisolone, 2 weeks): decreases of all counted lineages, which were not fully ameliorated by prednisolone dose adjustment | granulocyte colony stimulating factor (G-CSF) level [4]: did not show sensitivity to SPI-62 | interferon gamma (IFNγ) level [4]: did not show sensitivity to SPI-62 | HbA1c [5]: clinically meaningful decrease | fibrinogen (PF) level [6]: increased

SMILES: C[C@@H]1C[C@H]2[C@@H]3CCC4=CC(=O)C=C[C@]4(C)[C@@]3(F)[C@@H](O)C[C@]2(C)[C@@]1(O)C(=O)CO [dexamethasone]
ECG heart rate decrease (healthy adults): approximately 12 bpm | HDL cholesterol (healthy adults): clinically meaningful increase | LDL cholesterol (healthy adults): not particularly sensitive | triglycerides (healthy adults): not particularly sensitive

SMILES: C[C@]12C=CC(=O)C=C1CC[C@@H]1[C@@H]2[C@@H](O)C[C@@]2(C)[C@H]1CC[C@]2(O)C(=O)CO [prednisolone, reference compound]
HbA1c [2, 9]: decrease | LDL cholesterol [2, 9]: encompassed zero | cholesterol [2, 9]: encompassed zero | triglycerides [2, 9]: encompassed zero | incidence of adverse events of PMR aggravated ([8]; participants with event/participants): 0/50 | PMR relapse (increase of PMR symptoms or disease activity such that a prednisolone dose increase was indicated) ([8]; participants with relapse/participants): 0/50
